Source: PubChem BioAssay (NCI)
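Five compound concentrations were applied to cells in 96-well plates for 48 hours; endpoints were derived by simple linear interpolation of the resulting dose-response curve. GI50 = concentration required for 50% inhibition of growth. TGI: total growth inhibition.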

Columns and labels:
Assay in all cases: DTP human tumour cell line panel, 48 h
HT29 colon = system: HT29 colon
SF-268 CNS = system: SF-268 CNS
KM12 colon = system: KM12 colon
HS 578T breast = system: HS 578T breast
PC-3 prostate = system: PC-3 prostate
M14 melanoma = system: M14 melanoma
786-0 renal = system: 786-0 renal
CAKI-1 renal = system: CAKI-1 renal
NCI-H460 lung = system: NCI-H460 lung
HOP-62 NSCLC = system: HOP-62 NSCLC
EKVX NSCLC = system: EKVX NSCLC
UO-31 renal = system: UO-31 renal
HCT-15 colon = system: HCT-15 colon
UACC-257 melanoma = system: UACC-257 melanoma
RPMI-8226 leukemia = system: RPMI-8226 leukemia
NCI/ADR-RES ovarian = system: NCI/ADR-RES ovarian
OVCAR-5 ovarian = system: OVCAR-5 ovarian
OVCAR-8 ovarian = system: OVCAR-8 ovarian
SW-620 colon = system: SW-620 colon
TK-10 renal = system: TK-10 renal
MDA-MB-231 breast = system: MDA-MB-231 breast
MDA-MB-435 = system: MDA-MB-435
SF-295 CNS = system: SF-295 CNS
IGROV1 ovarian = system: IGROV1 ovarian
SK-MEL-2 melanoma = system: SK-MEL-2 melanoma
MOLT-4 leukemia = system: MOLT-4 leukemia
COLO 205 colon = system: COLO 205 colon
T-47D breast = system: T-47D breast
A498 renal = system: A498 renal
NCI-H522 lung = system: NCI-H522 lung
HOP-92 NSCLC = system: HOP-92 NSCLC
SK-MEL-28 melanoma = system: SK-MEL-28 melanoma
UACC-62 melanoma = system: UACC-62 melanoma
SK-OV-3 ovarian = system: SK-OV-3 ovarian
SF-539 CNS = system: SF-539 CNS
OVCAR-3 ovarian = system: OVCAR-3 ovarian
MALME-3M melanoma = system: MALME-3M melanoma
NCI-H23 lung = system: NCI-H23 lung
LOX IMVI melanoma = system: LOX IMVI melanoma
SR leukemia = system: SR leukemia
MCF7 breast = system: MCF7 breast
RXF 393 renal = system: RXF 393 renal
HL-60(TB) leukemia = system: HL-60(TB) leukemia
BT-549 breast = system: BT-549 breast
CCRF-CEM leukemia = system: CCRF-CEM leukemia
HCC-2998 colon = system: HCC-2998 colon
HCT-116 colon = system: HCT-116 colon
NCI-H226 lung = system: NCI-H226 lung
SNB-19 CNS = system: SNB-19 CNS
ACHN renal = system: ACHN renal
A549 NSCLC = system: A549 NSCLC
SNB-75 CNS = system: SNB-75 CNS
SK-MEL-5 melanoma = system: SK-MEL-5 melanoma
OVCAR-4 ovarian = system: OVCAR-4 ovarian
U251 CNS = system: U251 CNS
MDA-MB-468 breast = system: MDA-MB-468 breast
DU-145 prostate = system: DU-145 prostate
SN12C renal = system: SN12C renal

Compound: O=C(NN1C(=O)/C(=C/C=C/c2ccc([N+](=O)[O-])o2)SC1=S)c1ccc([N+](=O)[O-])cc1
- GI50 (HT29 colon): 225 nM
- TGI (HT29 colon): 513 nM
- GI50 (SF-268 CNS): 1560 nM
- TGI (SF-268 CNS): 4450 nM
- GI50 (KM12 colon): 925 nM
- TGI (KM12 colon): 2420 nM
- GI50 (HS 578T breast): 1750 nM
- TGI (HS 578T breast): 5770 nM
- GI50 (PC-3 prostate): 1230 nM
- TGI (PC-3 prostate): 3200 nM
- GI50 (M14 melanoma): 189 nM
- TGI (M14 melanoma): 396 nM
- GI50 (786-0 renal): 247 nM
- TGI (786-0 renal): 645 nM
- GI50 (CAKI-1 renal): 704 nM
- TGI (CAKI-1 renal): 1940 nM
- GI50 (NCI-H460 lung): 341 nM
- TGI (NCI-H460 lung): 1240 nM
- GI50 (HOP-62 NSCLC): 771 nM
- TGI (HOP-62 NSCLC): 2130 nM
- GI50 (EKVX NSCLC): 639 nM
- TGI (EKVX NSCLC): 1880 nM
- GI50 (UO-31 renal): 1080 nM
- TGI (UO-31 renal): 2290 nM
- GI50 (HCT-15 colon): 130 nM
- TGI (HCT-15 colon): 315 nM
- GI50 (UACC-257 melanoma): 1440 nM
- TGI (UACC-257 melanoma): 3210 nM
- GI50 (RPMI-8226 leukemia): 344 nM
- TGI (RPMI-8226 leukemia): 2110 nM
- GI50 (NCI/ADR-RES ovarian): 765 nM
- TGI (NCI/ADR-RES ovarian): 3110 nM
- GI50 (OVCAR-5 ovarian): 1440 nM
- TGI (OVCAR-5 ovarian): 2750 nM
- GI50 (OVCAR-8 ovarian): 266 nM
- TGI (OVCAR-8 ovarian): 964 nM
- GI50 (SW-620 colon): 188 nM
- TGI (SW-620 colon): 405 nM
- GI50 (TK-10 renal): 1580 nM
- TGI (TK-10 renal): 2970 nM
- GI50 (MDA-MB-231 breast): 185 nM
- TGI (MDA-MB-231 breast): 368 nM
- GI50 (MDA-MB-435): 243 nM
- TGI (MDA-MB-435): 633 nM
- GI50 (SF-295 CNS): 1700 nM
- TGI (SF-295 CNS): 3180 nM
- GI50 (IGROV1 ovarian): 601 nM
- TGI (IGROV1 ovarian): 1610 nM
- GI50 (SK-MEL-2 melanoma): 239 nM
- TGI (SK-MEL-2 melanoma): 785 nM
- GI50 (MOLT-4 leukemia): 322 nM
- TGI (MOLT-4 leukemia): 1940 nM
- GI50 (COLO 205 colon): 301 nM
- TGI (COLO 205 colon): 826 nM
- GI50 (T-47D breast): 1800 nM
- TGI (T-47D breast): 4400 nM
- GI50 (A498 renal): 3280 nM
- TGI (A498 renal): 10900 nM
- GI50 (NCI-H522 lung): 187 nM
- TGI (NCI-H522 lung): 376 nM
- GI50 (HOP-92 NSCLC): 310 nM
- TGI (HOP-92 NSCLC): 1210 nM
- GI50 (SK-MEL-28 melanoma): 1100 nM
- TGI (SK-MEL-28 melanoma): 2400 nM
- GI50 (UACC-62 melanoma): 218 nM
- TGI (UACC-62 melanoma): 607 nM
- GI50 (SK-OV-3 ovarian): 1910 nM
- TGI (SK-OV-3 ovarian): 3810 nM
- GI50 (SF-539 CNS): 263 nM
- TGI (SF-539 CNS): 745 nM
- GI50 (OVCAR-3 ovarian): 491 nM
- TGI (OVCAR-3 ovarian): 1750 nM
- GI50 (MALME-3M melanoma): 181 nM
- TGI (MALME-3M melanoma): 377 nM
- GI50 (NCI-H23 lung): 289 nM
- TGI (NCI-H23 lung): 916 nM
- GI50 (LOX IMVI melanoma): 213 nM
- TGI (LOX IMVI melanoma): 499 nM
- GI50 (SR leukemia): 21.3 nM
- TGI (SR leukemia): > 100000 nM
- GI50 (MCF7 breast): 363 nM
- TGI (MCF7 breast): 1690 nM
- GI50 (RXF 393 renal): 521 nM
- TGI (RXF 393 renal): 1860 nM
- GI50 (HL-60(TB) leukemia): 1800 nM
- TGI (HL-60(TB) leukemia): 6810 nM
- GI50 (BT-549 breast): 189 nM
- TGI (BT-549 breast): 489 nM
- GI50 (CCRF-CEM leukemia): 262 nM
- TGI (CCRF-CEM leukemia): 1050 nM
- GI50 (HCC-2998 colon): 389 nM
- TGI (HCC-2998 colon): 1290 nM
- GI50 (HCT-116 colon): 156 nM
- TGI (HCT-116 colon): 332 nM
- GI50 (NCI-H226 lung): 548 nM
- TGI (NCI-H226 lung): 1620 nM
- GI50 (SNB-19 CNS): 1460 nM
- TGI (SNB-19 CNS): 2810 nM
- GI50 (ACHN renal): 1030 nM
- TGI (ACHN renal): 2200 nM
- GI50 (A549 NSCLC): 1860 nM
- TGI (A549 NSCLC): 4090 nM
- GI50 (SNB-75 CNS): 1250 nM
- TGI (SNB-75 CNS): 3380 nM
- GI50 (SK-MEL-5 melanoma): 258 nM
- TGI (SK-MEL-5 melanoma): 760 nM
- GI50 (OVCAR-4 ovarian): 1450 nM
- TGI (OVCAR-4 ovarian): 2900 nM
- GI50 (U251 CNS): 381 nM
- TGI (U251 CNS): 1660 nM
- GI50 (MDA-MB-468 breast): 1310 nM
- TGI (MDA-MB-468 breast): 2790 nM
- GI50 (DU-145 prostate): 936 nM
- TGI (DU-145 prostate): 2290 nM
- GI50 (SN12C renal): 175 nM
- TGI (SN12C renal): 390 nM
